Data on one substance can be found in patent US9867799B2, “Diethyl-[6-(4-hydroxycarbamoyl-phenyl-carbamoyloxy-methyl)-naphthalen-2-yl-methyl]-ammonium chloride for use in the treatment of muscular dystrophy” (ITALFARMACO S.P.A., priority 2012, dated 2018).

Data set [1] can be described thus: Micronucleus test in vivo (genotoxicity).
Data set [2] can be described thus: UDS test in vivo (genotoxicity).
The subject of data set [3] is children with Systemic Onset Juvenile Idiopathic Arthritis. The note with it: 1.5 mg/kg/day for twelve weeks; cited from earlier work.
Data set [4] is described as follows: Chromosomal aberration assay in vitro (genotoxicity). It counts as cell-based.
Data set [5] has as its system mouse lymphoma. Kind of data set: Mouse lymphoma assay in vitro (genotoxicity). Format: cell-based.
Data set [6] concerns juvenile animals. As to the kind of experiment: Juvenile animal toxicity (development and reproductive performance). It counts as in vivo. Conditions: 60 mg/kg/day.
In data set [7] the test system is dogs, rats and monkeys. As to the kind of experiment: Repeated dose toxicity studies. Format: in vivo. The note with it: oral daily doses up to nine consecutive months. On the procedure: To date more than 500 patients (including 29 children) have been treated with Givinostat. Repeated dose toxicity studies were carried out in dogs, rats and monkeys. Oral daily doses of the drug were administered up to nine consecutive months. […] The “no adverse effect levels” (NOAEL) ranged from 10 to 25 mg/kg/day depending on the animal species and the duration of treatment.

For the substance “diethyl-[6-(4-hydroxycarbamoyl-phenyl-carbamoyloxy-methyl)-naphthalen-2-yl-methyl]-ammonium chloride [Givinostat]”, the genotoxic effect entry in data set [1], in data set [2], in data set [4] and in data set [5] was “No genotoxic effect” in each case. For the same substance, the “ACR Pedi 30, 50 and 70 improvement” value in data set [3] was “approximately 70%”. The adverse effects result in data set [3] is given as “only a limited number of mild or moderate but short lasting, adverse effects”. The “behavioural and physical development and reproductive performance of pups” value in data set [6] is “did not affect the behavioural and physical development and reproductive performance of pups”. Further, in data set [7], the “tolerability / overt toxicity” value was “well tolerated with no overt toxicity at high doses”.
